Values quoted from earlier work in patent US8535717B2, “Pharmaceutical composition” (Sun Pharma Advanced Research Company Limited, priority 2005, dated 2013).

**Q.** Which solubility (cannot be decreased by altering pH of the microenvironment) does the source give for CC[C@@H](C(N)=O)N1CCCC1=O [levetiracetam] here?
**A.** 104 g/100 ml

**Q.** And the solubility in water (water)?
**A.** 104 g in 100 ml
